According to article PMC4052532, “Biodistribution and SPECT Imaging Study of ^99mTc Labeling NGR Peptide in Nude Mice Bearing Human HepG2 Hepatoma” (BioMed Research International, 2014):
Read-outs that look alike come from different tables or passages of the source. Where a SMILES comes first, the peptide text is derived from it. Bridges are numbered along the chain shown (N, C = ends).

Key:
[1] = In vitro stability in mouse serum (radio-TLC); assay type: in vitro ADME; conditions: 37°C, 12 h incubation, percentage of parent tracer by radio-TLC, read-out: ^99mTc-NGR peptide remained intact
Experimental: (§1) The stability of ^99mTc-labeled NGR peptide in PBS and mouse serum at 37°C was studied at 1, 3, 6, and 12 h. Then the percentage of parent tracer was determined by radio-TLC (Table 1).

[2] = In vitro stability in PBS (radio-TLC); assay type: physicochemical; conditions: PBS pH 7.4, 37°C, 12 h incubation, percentage of parent tracer by radio-TLC
Experimental: as §1

HepG2 cells = assay: Cell uptake study; assay type: cell-based, human; conditions: 37°C, ~370 kBq/well, gamma counter, n = 3, mean ± SD
Experimental: HepG2 cells were seeded into 48-well plates at a density of 2 × 10^5 cells per well 24 h prior to the experiment. HepG2 cells were then incubated with ^99mTc-labeled NGR peptides (~370 kBq/well) at 37°C for 15, 30, 60, 120, and 240 min. After incubation, tumor cells were washed three times with ice cold PBS and harvested by trypsinization with 0.25% trypsin/0.02% EDTA (Hyclone, USA). Cell suspensions were collected and measured in a gamma counter (Zhida, Shannxi, China). Cell uptake data was presented as percentage of total input radioactivity added to the culture medium after decay correction. Experiments were performed twice with triplicate wells.

Biodistribution studies = assay type: in vivo; conditions: female, BALB/c nude, mouse, total radioactivity; for tissue uptake at 1 h / tissue uptake at 4 h / tissue uptake at 8 h / tissue uptake at 12 h: n = 5, mean ± SD; for tissue uptake at 4 h: 4 h postinjection; for tissue uptake at 8 h: 8 h postinjection; for tissue uptake at 12 h: 12 h postinjection
Experimental: HepG2 cells were grown in high glucose DMEM culture medium. All cell lines were cultured in medium supplemented with 10% (v/v) fetal bovine serum (Gibco, USA), 1% mycillin, and 1% Glutamine (Beyotime, China) at 37°C in a humidified atmosphere with 5% CO2. Using female BALB/c nude mice (4–6 weeks of age), HepG2 tumor model was established by subcutaneous injection of 2 × 10^6 HepG2 tumor cells (0.1 mL) into the right upper flanks. When the tumor volume reached 0.8~1.0 cm in diameter (2-3 weeks after inoculation), the tumor-bearing mice were used for SPECT imaging and biodistribution studies. All animal studies were approved by Clinical Center at the FMMU.
Nude mice bearing human HepG2 hepatoma were randomly divided into 5 groups and injected with ~7.4 MBq of ^99mTc-NGR with or without excess unlabelled NGR peptide (20 mg/kg). After injection of the tracer, mice were sacrificed and dissected. The radioactivity in the HepG2 tumor, major organs, and muscle were collected and weighed wet with tubes (%ID/g). Mean uptake (%ID/g) for a group of animals was calculated with standard deviations. Values were expressed as mean ± SD (n = 5/group).

[3] = blood, iv, ~7.4 MBq i.v., read-out: Blood uptake
[4] = heart, iv, ~7.4 MBq i.v., read-out: Heart uptake
[5] = intestine, iv, ~7.4 MBq i.v., read-out: Intestine uptake
[6] = iv, HepG2 tumor, ~7.4 MBq i.v., read-out: Tumor uptake
[7] = kidney, iv, ~7.4 MBq i.v., read-out: Kidney uptake
[8] = liver, iv, ~7.4 MBq i.v., read-out: Liver uptake
[9] = lung, iv, ~7.4 MBq i.v., read-out: Lung uptake
[10] = muscle, iv, ~7.4 MBq i.v., read-out: Muscle uptake
[11] = spleen, iv, ~7.4 MBq i.v., read-out: Spleen uptake
[12] = stomach, iv, ~7.4 MBq i.v., read-out: Stomach uptake

## N=C(N)NCCC[C@@H]1NC(=O)CNC(=O)[C@H](CC(N)=O)NC(=O)[C@@H](NC(=O)CNC(=O)CNC(=O)[C@@H](N)Cc2ccc(O)cc2)CSSC[C@@H](C(=O)O)NC1=O [^99mTc-NGR, metal not drawn] (H-YGGCNGRC-OH; disulfide 4-8)
[1]
  remaining at 12 h: ~92%
[2]
  ^99mTc-NGR peptide remained intact: ~92%
HepG2 cells; 15 min
  uptake in HepG2 cells (percentage of total input radioactivity): about 0.49 ± 0.05%
HepG2 cells; 2 h (maximum)
  uptake in HepG2 cells (percentage of total input radioactivity): 1.52 ± 0.13%
HepG2 cells; 4 h
  uptake in HepG2 cells (percentage of total input radioactivity): About 1.35 ± 0.27%
Biodistribution studies; blood, iv, 1 h postinjection, ~7.4 MBq i.v., read-out: Blood uptake
  tissue uptake at 1 h: 3.82 ± 0.41 %ID/g
Biodistribution studies; [3]
  tissue uptake at 4 h: 1.75 ± 0.39 %ID/g
  tissue uptake at 8 h: 0.98 ± 0.22 %ID/g
  tissue uptake at 12 h: 0.75 ± 0.31 %ID/g
Biodistribution studies; blood, iv, Blocking (1 h), coinjection of unlabelled NGR 20 mg/kg, read-out: Blood uptake
  tissue uptake at 1 h: 2.56 ± 0.34 %ID/g
Biodistribution studies; heart, iv, 1 h postinjection, ~7.4 MBq i.v., read-out: Heart uptake
  tissue uptake at 1 h: 3.74 ± 0.54 %ID/g
Biodistribution studies; [4]
  tissue uptake at 4 h: 2.26 ± 0.33 %ID/g
  tissue uptake at 8 h: 1.15 ± 0.32 %ID/g
  tissue uptake at 12 h: 1.07 ± 0.25 %ID/g
Biodistribution studies; heart, iv, Blocking (1 h), coinjection of unlabelled NGR 20 mg/kg, read-out: Heart uptake
  tissue uptake at 1 h: 2.73 ± 0.29 %ID/g
Biodistribution studies; intestine, iv, 1 h postinjection, ~7.4 MBq i.v., read-out: Intestine uptake
  tissue uptake at 1 h: 2.65 ± 1.06 %ID/g
Biodistribution studies; [5]
  tissue uptake at 4 h: 2.18 ± 0.96 %ID/g
  tissue uptake at 8 h: 1.93 ± 0.22 %ID/g
  tissue uptake at 12 h: 1.6 ± 0.27 %ID/g
Biodistribution studies; intestine, iv, Blocking (1 h), coinjection of unlabelled NGR 20 mg/kg, read-out: Intestine uptake
  tissue uptake at 1 h: 2.4 ± 0.59 %ID/g
Biodistribution studies; iv, HepG2 tumor, 1 h postinjection, ~7.4 MBq i.v., read-out: Tumor uptake
  tissue uptake at 1 h: 2.52 ± 0.83 %ID/g
Biodistribution studies; [6]
  tissue uptake at 4 h: 3.03 ± 0.71 %ID/g
  tissue uptake at 8 h: 3.26 ± 0.63 %ID/g
  tissue uptake at 12 h: 2.81 ± 0.25 %ID/g
Biodistribution studies; iv, HepG2 tumor, Blocking (1 h), coinjection of unlabelled NGR 20 mg/kg, read-out: Tumor uptake
  tissue uptake at 1 h: 1.65 ± 0.61 %ID/g
Biodistribution studies; kidney, iv, 1 h postinjection, ~7.4 MBq i.v., read-out: Kidney uptake
  tissue uptake at 1 h: 7.93 ± 2.13 %ID/g
Biodistribution studies; [7]
  tissue uptake at 4 h: 7.03 ± 0.95 %ID/g
  tissue uptake at 8 h: 6.21 ± 0.43 %ID/g
  tissue uptake at 12 h: 5.96 ± 0.41 %ID/g
Biodistribution studies; kidney, Blocking (1 h), coinjection of unlabelled NGR 20 mg/kg, read-out: Kidney uptake
  tissue uptake at 1 h: 5.03 ± 0.97 %ID/g
Biodistribution studies; liver, iv, 1 h postinjection, ~7.4 MBq i.v., read-out: Liver uptake
  tissue uptake at 1 h: 4.07 ± 0.76 %ID/g
Biodistribution studies; [8]
  tissue uptake at 4 h: 3.85 ± 0.73 %ID/g
  tissue uptake at 8 h: 3.44 ± 0.52 %ID/g
  tissue uptake at 12 h: 3.26 ± 0.47 %ID/g
Biodistribution studies; liver, Blocking (1 h), coinjection of unlabelled NGR 20 mg/kg, read-out: Liver uptake
  tissue uptake at 1 h: 3.27 ± 0.16 %ID/g
Biodistribution studies; [9]
  tissue uptake at 4 h: 2.13 ± 0.44 %ID/g
  tissue uptake at 8 h: 1.86 ± 0.38 %ID/g
  tissue uptake at 12 h: 1.21 ± 0.31 %ID/g
Biodistribution studies; lung, iv, Blocking (1 h), coinjection of unlabelled NGR 20 mg/kg, read-out: Lung uptake
  tissue uptake at 1 h: 2.04 ± 0.28 %ID/g
Biodistribution studies; muscle, iv, 1 h postinjection, ~7.4 MBq i.v., read-out: Muscle uptake
  tissue uptake at 1 h: 0.53 ± 0.33 %ID/g
Biodistribution studies; [10]
  tissue uptake at 4 h: 0.46 ± 0.11 %ID/g
  tissue uptake at 8 h: 0.43 ± 0.14 %ID/g
  tissue uptake at 12 h: 0.39 ± 0.22 %ID/g
Biodistribution studies; muscle, iv, Blocking (1 h), coinjection of unlabelled NGR 20 mg/kg, read-out: Muscle uptake
  tissue uptake at 1 h: 0.48 ± 0.27 %ID/g
Biodistribution studies; spleen, iv, 1 h postinjection, ~7.4 MBq i.v., read-out: Spleen uptake
  tissue uptake at 1 h: 2.37 ± 0.43 %ID/g
Biodistribution studies; [11]
  tissue uptake at 4 h: 2.09 ± 0.6 %ID/g
  tissue uptake at 8 h: 1.88 ± 0.42 %ID/g
  tissue uptake at 12 h: 1.72 ± 0.37 %ID/g
Biodistribution studies; spleen, Blocking (1 h), coinjection of unlabelled NGR 20 mg/kg, read-out: Spleen uptake
  tissue uptake at 1 h: 1.89 ± 0.22 %ID/g
Biodistribution studies; stomach, iv, 1 h postinjection, ~7.4 MBq i.v., read-out: Stomach uptake
  tissue uptake at 1 h: 3.07 ± 0.56 %ID/g
Biodistribution studies; [12]
  tissue uptake at 4 h: 2.2 ± 0.26 %ID/g
  tissue uptake at 8 h: 1.61 ± 0.39 %ID/g
  tissue uptake at 12 h: 1.56 ± 0.32 %ID/g
Biodistribution studies; stomach, Blocking (1 h), coinjection of unlabelled NGR 20 mg/kg, read-out: Stomach uptake
  tissue uptake at 1 h: 3.41 ± 0.31 %ID/g
Biodistribution studies; tumor/kidney, iv, 7.4 MBq, 1 h postinjection, read-out: Tumor-to-normal tissue uptake ratio T/K
  tissue to tissue ratio at 1 h: 0.32 ± 0.15
Biodistribution studies; tumor/liver, iv, 7.4 MBq, 1 h postinjection, read-out: Tumor-to-normal tissue uptake ratio T/L
  tissue to tissue ratio at 1 h: 0.62 ± 0.33
Biodistribution studies; tumor/muscle, iv, 7.4 MBq, 1 h postinjection, read-out: Tumor-to-normal tissue uptake ratio T/M
  tissue to tissue ratio at 1 h: 4.75 ± 0.91
Biodistribution studies; tumor/muscle, iv, 7.4 MBq, 8 h (highest value), read-out: tumor/muscle (T/NT) value
  tissue to tissue ratio at 8 h: 7.58 ± 1.92
